This is an account of results in ChEMBL document CHEMBL2074233, “Expression and pharmacological profile of the human organic cation transporters hOCT1, hOCT2 and hOCT3” (Br J Pharmacol, 2002).

For experiment [1], the target named is T1, Solute carrier family 22 member 3 (Homo sapiens, UniProt O75751).
T1 sequence (O75751 whole entry): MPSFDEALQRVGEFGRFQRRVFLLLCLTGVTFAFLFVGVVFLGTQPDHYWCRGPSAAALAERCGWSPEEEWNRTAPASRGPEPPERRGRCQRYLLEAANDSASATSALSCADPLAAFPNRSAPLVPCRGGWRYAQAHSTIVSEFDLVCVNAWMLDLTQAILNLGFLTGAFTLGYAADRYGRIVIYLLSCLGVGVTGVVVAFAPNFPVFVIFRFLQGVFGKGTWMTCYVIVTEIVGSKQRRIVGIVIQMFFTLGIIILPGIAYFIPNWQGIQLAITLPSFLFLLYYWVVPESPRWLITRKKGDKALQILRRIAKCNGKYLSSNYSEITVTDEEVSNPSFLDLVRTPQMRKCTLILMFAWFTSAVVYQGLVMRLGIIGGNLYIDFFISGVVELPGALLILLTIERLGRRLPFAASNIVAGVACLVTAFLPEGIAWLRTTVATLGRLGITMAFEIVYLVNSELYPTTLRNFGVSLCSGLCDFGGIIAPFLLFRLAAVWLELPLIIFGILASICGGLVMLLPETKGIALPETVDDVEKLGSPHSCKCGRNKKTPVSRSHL
Put plainly: TP_TRANSPORTER: inhibition of MPP+ uptake (MPP+: 0.025 uM) in OCT3-expressing HEK293 cells.

The target in experiment [2] is T2, Solute carrier family 22 member 2 (Homo sapiens, UniProt O15244).
T2 sequence (O15244 whole entry): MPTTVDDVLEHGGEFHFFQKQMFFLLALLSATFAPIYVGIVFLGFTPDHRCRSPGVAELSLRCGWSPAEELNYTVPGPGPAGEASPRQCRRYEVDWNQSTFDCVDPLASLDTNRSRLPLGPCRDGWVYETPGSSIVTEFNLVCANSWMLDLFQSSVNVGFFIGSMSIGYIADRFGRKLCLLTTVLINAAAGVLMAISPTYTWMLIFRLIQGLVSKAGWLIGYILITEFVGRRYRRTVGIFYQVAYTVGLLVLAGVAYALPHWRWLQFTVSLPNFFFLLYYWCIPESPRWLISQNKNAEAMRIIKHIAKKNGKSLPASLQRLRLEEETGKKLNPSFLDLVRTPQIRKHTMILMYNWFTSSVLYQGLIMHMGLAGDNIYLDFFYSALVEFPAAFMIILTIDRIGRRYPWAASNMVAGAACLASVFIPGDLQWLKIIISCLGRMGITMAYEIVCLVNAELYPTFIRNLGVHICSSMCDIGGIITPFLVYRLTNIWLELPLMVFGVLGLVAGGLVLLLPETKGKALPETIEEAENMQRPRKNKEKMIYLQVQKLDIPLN
Put plainly: TP_TRANSPORTER: inhibition of MPP+ uptake (MPP+: 0.025 uM) in OCT2-expressing HEK293 cells.

For experiment [3], the target named is T3, Solute carrier family 22 member 1 (Homo sapiens, UniProt O15245).
T3 sequence (O15245 whole entry): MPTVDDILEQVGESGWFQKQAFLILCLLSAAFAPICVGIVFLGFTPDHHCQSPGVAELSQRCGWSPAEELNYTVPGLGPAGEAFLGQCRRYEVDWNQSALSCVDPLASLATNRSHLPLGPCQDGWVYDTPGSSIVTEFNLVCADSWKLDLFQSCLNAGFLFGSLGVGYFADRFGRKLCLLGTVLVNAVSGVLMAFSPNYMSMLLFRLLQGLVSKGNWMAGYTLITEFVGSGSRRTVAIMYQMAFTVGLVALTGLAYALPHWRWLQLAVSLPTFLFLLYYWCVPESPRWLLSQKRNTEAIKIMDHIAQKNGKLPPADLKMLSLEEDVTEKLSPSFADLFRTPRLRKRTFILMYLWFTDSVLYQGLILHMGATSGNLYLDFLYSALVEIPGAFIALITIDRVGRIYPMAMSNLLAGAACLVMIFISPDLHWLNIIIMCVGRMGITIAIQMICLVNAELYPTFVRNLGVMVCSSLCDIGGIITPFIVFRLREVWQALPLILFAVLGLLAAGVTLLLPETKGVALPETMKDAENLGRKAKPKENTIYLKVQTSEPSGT
Put plainly: TP_TRANSPORTER: inhibition of MPP+ uptake (MPP+: 0.025 uM) in OCT1-expressing HEK293 cells.

For `CCN1/C(=C/c2ccc3ccccc3[n+]2CC)C=Cc2ccccc21`, the IC50 (in general, the concentration at which inhibition is half-maximal) in experiment [1] amounted to 90 nM; in experiment [2] it was 1130 nM; in experiment [3], 980 nM.

In the case of `CN(CCCl)C1c2ccccc2-c2ccccc21`, the IC50 was 50 nM in experiment [1], 100 nM in experiment [2] and over 300 nM in experiment [3].

On to `C[C@]12C[C@H](O)[C@H]3[C@@H](CCC4=CC(=O)CC[C@@]43C)[C@@H]1CC[C@@H]2C(=O)CO` [CORTICOSTERONE], for which the IC50 in experiment [1] came out at 290 nM; in experiment [2], 34200 nM; in experiment [3] it was 21700 nM.

For the molecule `C[C@]12CC[C@@H]3c4ccc(O)cc4CC[C@H]3[C@@H]1CC[C@@H]2O` [ESTRADIOL], the half-maximal inhibitory concentration (IC50) in experiment [1] amounted to 2880 nM; in experiment [3] it was 5730 nM.

In the case of `COc1cc(C(O)CNC(C)C)ccc1O` (stereo not given) [METIPRENALINE], the IC50 in experiment [1] was 4380 nM; in experiment [2], over 100000 nM; in experiment [3] it was over 100000 nM.

As to `CC(COc1ccccc1)N(CCCl)Cc1ccccc1` (stereo not given) [PHENOXYBENZAMINE], the figures for the IC50 in experiment [1] and in experiment [3] were 6130 nM and 2720 nM, respectively.

For `COc1cc2nc(N3CCN(C(=O)c4ccco4)CC3)nc(N)c2cc1OC` [PRAZOSIN], the results for the IC50 in experiment [1] and in experiment [3] were 12600 nM and 1840 nM, respectively.

On to `CC(=O)[C@H]1CC[C@H]2[C@@H]3CCC4=CC(=O)CC[C@]4(C)[C@H]3CC[C@]12C` [PROGESTERONE], for which the results for the IC50 in experiment [1] and in experiment [3] were 4280 nM and 3050 nM, respectively.
